Assay results: patent US20080187588A1, “Formulations With Controlled Release Of Active Ingredient” (Bayer HealthCare AG, priority 2004, published 2008)
Where a name gives a salt, the structure may show the parent alone.

Experiments:
[1] = pH-dependent solubility of vardenafil hydrochloride trihydrate; format: physicochemical
From the text: This great pH-dependence represents a hindrance in particular to the development of pharmaceutical dosage forms with controlled release of active ingredient for oral use, because the medicinal form is exposed on passage through the gastrointestinal (GI) tract to media with pH values varying greatly from about pH 1 to pH 7.5. In order to achieve a sufficient bioavailability from a slow-release medicinal form, a substance must be absorbed if possible over the entire gastrointestinal tract. […] A slowing of the release of active ingredient usually leads in the case of substances subject to a very large first-pass effect to complete loss of the oral bioavailability, because the slow rise in level of the active ingredient means that the concentrations in the portal vein blood remain so low that the capacity of the metabolizing liver enzymes is sufficient for complete degradation.

[2] = cited from earlier work

Row | solubility ([1]; aqueous buffer, in 0.15 M phosphate buffer of pH 4) [µg/mL] | solubility ([1]; aqueous buffer, in 0.15 M phosphate buffer of pH 7) [µg/mL] | solubility ([1]; simulated gastric fluid, in 0.1 N hydrochloric acid) [µg/mL] | SMILES | absolute oral bioavailability [2] [%]
1 | 870 | 30 | 65000 | CCCc1nc(C)c2c(=O)[nH]c(-c3cc(S(=O)(=O)N4CCN(CC)CC4)ccc3OCC)nn12 [vardenafil hydrochloride trihydrate] | 
2 |  |  |  | CCCc1nc(C)c2c(=O)[nH]c(-c3cc(S(=O)(=O)N4CCN(CC)CC4)ccc3OCC)nn12 [vardenafil, {2-ethoxy-5-[(4-ethyl-1-piperazinyl)sulphonyl]phenyl}-5-methyl-7-propylimidazo[5,1-f]triazin-4(3H)-one] | 15
